Experimental data from patent publication US20220040122A1, “COMPOSITION FOR ALLERGY PREVENTION, ATOPIC DERMATITIS ALLEVIATION OR SKIN REGENERATION, CONTAINING, AS ACTIVE INGREDIENT, UNDECANE OR UNDECANAL” (BOTANICSENS, priority 2019, published 2022).
“Also recorded” adds a separate entry of the source.

How the values were obtained:
[1] = test system: Keratinocytes (human keratinocyte cell line, HaCaT); test: Inflammatory cytokine expression (real-time PCR) in TNF-α/IFN-γ-stimulated keratinocytes; assay type: cell-based; details: 24 h, vs immune-response-induced control
Protocol: (§1) Keratinocytes (human keratinocyte cell line, HaCaT) were purchased from ATCC (Manassas, Va., USA) and used. For cell culture, the culture medium of DMEM containing 10% fetal bovine serum (FBS) and antibiotics was used. The culture vessel used a 75T-flask and a 6-well plate, and cultured in a 37° C. incubator supplied with 5% CO2. The culture medium was changed every 3 to 4 days, and subculture was performed when the cells were excessively proliferated. The dispensed HaCaT cells (5×10^5/well) were cultured for 24 hours and then washed with PBS. In order to induce an immune response to keratinocytes, TNF-α (tumor necrosis factor-α) (10 ng/ml) and IFN-γ (interferon gamma) (10 ng/ml) were treated together in DMEM medium without FBS and incubated for 24 hours. At this time, in order to evaluate the efficacy of alleviating the immune response of undecane, 100 μM of undecane was simultaneously treated, and in the case of normal cells, DMSO instead of undecane, and in the case of positive control cells, 10 μM of tacrolimus instead of undecane were treated simultaneously with the immune response inducer and incubated for 24 hours.
(§2) After removing the supernatant of the mast cells that induced the immune response, 1 ml of trizol was added, left for 2 minutes, and chloroform was added, vortexed for 10 seconds, centrifuged at 5,000 rpm for 10 minutes, and the upper layer was taken, and mixed with the same amount of isopropanol and shaken. The supernatant was removed by centrifugation at 13,000 rpm for 25 minutes, and the pellet was dissolved in 20 μl of diethyl pyrocarbonate (DEPC)-DW and stored at −20° C. and then used in the experiment. RT-PCR was performed using a one-step RT-PCR PreMixkit (iNtRON Biotechnology, Korea) at 45° C. for 30 minutes and at 94° C. for 5 minutes, followed by denaturation at 94° C. for 30 seconds, and then after annealing at 55° C. for 30 seconds, the cycle of extension at 72° C. for 1 minute was repeated 32 times, and the last extension was performed at 72° C. for 5 minutes, and PiQ SYBR green supermix (Bio-Rad) and CFX Connect™ Real-Time PCR Detection System (Bio-Rad) was used to perform quantitative PCR, and the primer sequences used are as shown in Table 1.
as §1, with “undecanal,” for “undecane,”, “undecanal” for “undecane”
RNA isolation and real-time PCR (quantitative reverse-transcription polymerase chain reaction) using a Trizol method was performed by the same method as 3) RNA isolation using the Trizol method and real-time PCR of 1-1. of Example 1 described above.

[2] = test system: Mast cells (rat basophilic leukemia cell line, RBL-2H3); test: Inflammatory cytokine expression (real-time PCR) in anti-DNP-IgE/DNP-HSA-stimulated mast cells; assay type: cell-based; details: 1 h before DNP-HSA induction, vs immune-response-induced control
Protocol: Then, it was sensitized with anti-DNP (dinitrophenyl)-IgE (30 ng/ml) and cultured for 24 hours at 37° C., 5% CO2 in an incubator. After washing twice with PBS (phosphate buffered saline), DNP-HSA (dinitrophenylated human serum albumin; 10 μg/ml) was treated for 4 hours to induce an immune response. In addition, in order to evaluate atopy alleviating effect by undecane, mast cells treated with anti-DNP (dinitrophenyl)-IgE and cultured for 24 hours were treated with 100 μM of undecane, cultured for 1 hour, and then an immune response was induced with DNP-HSA. Normal cells were treated with DMSO instead of undecane under the same conditions as undecane-treated cells, and positive control cells were treated with 10 μM of tacrolimus instead of undecane and cultured for 1 hour, and then, an immune response was induced with DNP-HSA.
as §2, with “1. […]” for “1.”
Then, it was sensitized with anti-DNP (dinitrophenyl)-IgE (30 ng/ml) and cultured for 24 hours at 37° C., 5% CO2 in an incubator. After washing twice with PBS (phosphate buffered saline), DNP-HSA (dinitrophenylated human serum albumin; 10 μg/ml) was treated for 4 hours to induce an immune response. In addition, in order to evaluate an effect of alleviating atopy by undecanal, mast cells treated with anti-DNP (dinitrophenyl)-IgE and cultured for 24 hours were treated with 100 μM of undecanal, cultured for 1 hour, and then an immune response was induced with DNP-HSA. Normal cells were treated with DMSO instead of undecanal under the same conditions as undecanal-treated cells, and positive control cells were treated with 10 μM of tacrolimus instead of undecanal and cultured for 1 hour, and then, an immune response was induced with DNP-HSA. […]

rats [3] = details: cited from earlier work
rats [4] = details: rat, in vivo, po; cited from earlier work
rats [5] = details: chronic oral administration; cited from earlier work
[6] = 100 μM test compound together with TNF-α and IFN-γ
[7] = positive control 10 μM together with TNF-α and IFN-γ

| SMILES | expression of IL-1β [1, 6] | expression of IL-6 [1, 6] | expression of IL-8 [1, 6] | expression of IL-4 ([2]; 100 μM test compound) | expression of IL-13 ([2]; 100 μM test compound) | expression of TNF-α ([2]; 100 μM test compound) | LD50 (lethal dose, 50%) for inhalation toxicity (rats [3]) | expression of IL-1β [1, 7] | expression of IL-6 [1, 7] | expression of IL-8 [1, 7] | expression of IL-4 ([2]; positive control 10 μM) | expression of IL-13 ([2]; positive control 10 μM) | expression of TNF-α ([2]; positive control 10 μM) | LD50 (lethal dose, 50%) (rats [4]) | no-observed-adverse-effect level (NOAEL) (rats [5]) |
| --- | --- | --- | --- | --- | --- | --- | --- | --- | --- | --- | --- | --- | --- | --- | --- |
| CCCCCCCCCCC [undecane] | significantly reduced; also recorded: remarkably reduced | significantly reduced; also recorded: remarkably reduced | significantly reduced; also recorded: remarkably reduced | significantly reduced; also recorded: remarkably reduced | significantly reduced; also recorded: remarkably reduced | significantly reduced; also recorded: remarkably reduced | about 442 ppm/8H |  |  |  |  |  |  |  |  |
| C=CC[C@@H]1/C=C(\C)C[C@H](C)C[C@H](OC)[C@H]2O[C@@](O)(C(=O)C(=O)N3CCCC[C@H]3C(=O)O[C@H](/C(C)=C/[C@@H]3CC[C@@H](O)[C@H](OC)C3)[C@H](C)[C@@H](O)CC1=O)[C@H](C)C[C@@H]2OC [tacrolimus, reference compound] |  |  |  |  |  |  |  | significantly reduced | significantly reduced | significantly reduced | significantly reduced | significantly reduced | significantly reduced |  |  |
| CCCCCCCCCCC=O [undecanal] | significantly reduced; also recorded: remarkably reduced | significantly reduced; also recorded: remarkably reduced | significantly reduced; also recorded: remarkably reduced | significantly reduced; also recorded: remarkably reduced | significantly reduced; also recorded: remarkably reduced | significantly reduced; also recorded: remarkably reduced |  |  |  |  |  |  |  | > 5,000 mg/kg bw/day | about 1000 mg/kg bw |
